Tests used:
[1] = Topical carbopol gel formulation: permeability and skin irritation; settings: pH 6.8
Protocol: (§1) A formulation in accordance with embodiments of the present invention appropriate for topical administration was obtained by adding 200 mg of carbopol (Carbopol 934P; Lubrizol, USA) to 2.5 mL of distilled water and solubilizing 200 mg of 6OHM-6-HITC in 2 mL of ethanol. An appropriate amount of the ethanolic dispersion was transferred to the aqueous dispersion of carbopol. Methanol (1.25 mL) was mixed with 1 mL of ethanol and added to the 6OHM-6-HITC and carbopol mixture, which was gradually stirred, and carbopol was allowed to soak for 2 h. Triethanolamine (100 mg; Sigma-Aldrich, USA) was added to neutralize the carbopol solution and facilitate the formation of a gel, after which the pH was adjusted to 6.8. A vehicle cream was prepared using the same ingredients and identical methods as the cream, but 6OHM-6-HITC was omitted from the mixture. […] For topical treatment, 6OHM-6-HITC or the vehicle cream (concentration, 200 mg/cm^2) was spread on the irradiated skin of pigs twice daily for 35 days, and the first application was performed immediately after irradiation.

irradiated skin of pigs = experiment: Gamma-radiation-induced dermatitis in mini-pigs, clinical skin reaction score; assay type: in vivo, Gottingen mini-pigs
Description: Male Gottingen mini-pigs (mean weight, 19 kg; range, 18-20 kg; age, 6-7 months), obtained from Institute of Animal Breeding and Genetics, University of Gottingen, Germany, were used in these experiments. The mini-pigs were provided with tap water and commercial laboratory piglet chow from Purina Germany (Purina laboratory pig chow-5085) containing crude protein, fat, fiber, and ash, as well as calcium, phosphorus, and moisture (14.5, 4, 5, 8, 0.55, 1, and 14%, respectively). In addition, no antibiotic supplements were used. All animal experiments were performed in compliance to The German Animal Welfare Act.
as §1
To observe the effects of gamma-radiation on the skin of mini-pigs (3 animals per group), the dorsal skin was irradiated. […]
The pigs were evaluated every week during the five weeks following the irradiation, and their skin reactions were scored using a clinical status scoring system. […]

biopsy wound = experiment: Healing of biopsy wounds in irradiated skin; assay type: in vivo, Gottingen mini-pigs; settings: biopsy wound 3 days after irradiation
[2] = system: 2-Thiobarbituric Acid Reactive Substances (TBARS); experiment: TBARS levels in mouse tongues; assay type: in vivo, ICR mice; settings: 12 days after irradiation
Description: (§2) The scoring of oral mucositis was based on a modification of the method of Sonis et al. To assess the severity of oral mucositis, mice were anesthetized with isoflurane every day. The oral mucositis score was: 0=normal; 1=partial hyperemia, erythema and swelling; 2=overall hyperemia, erythema and swelling; 3=epidermolysis, hyperemia and erythema; 4=extensive epidermolysis and bleeding; 5=bleeding and abscesses. Myeloperoxidase (MPO) activity is a marker for neutrophils in inflamed tissue. MPO activity was measured in mouse tongues using a modification of the method of Chen et al. After mice had been killed by cervical dislocation 12 days after irradiation, tongue samples (n=10 per group) were removed and stored at −70° C. until required for assay. […] MPO activity was measured using a Microplate Reader (NJ-2300; Biotec, Tokyo, Japan) at 450 nm. MPO activity was calculated by measuring the slope of absorbance calibrated using MPO standards (Wako Biochemicals) and expressed as MPO/g tongue. […] TBARS levels were measured using the Microplate Reader (Biotec) at 540 nm. TBARS levels were calculated by measuring the slope of absorbance calibrated using TBARS standards and expressed as TBARS/g tongue. […] The number of TUNEL-positive cells on the tongue tips were counted and expressed as a percentage. […] Data were analyzed using one-way analysis of variance (ANOVA) followed by the Steel-Dwass test. […]

Myeloperoxidase (MPO) = Myeloperoxidase (MPO) activity in mouse tongues; assay type: in vivo, ICR mice; settings: 12 days after irradiation
Description: as §2

SMILES: COc1cc2c(CCCCN=C=S)c[nH]c2cc1O [6OHM-6-HITC]
- permeability of 6OHM-6-HITC from topical gel formulation [1]: highest permeability
- skin irritation by topical gel formulation [1]: without causing skin irritation
- clinical changes of irradiated skin vs. vehicle-treated (irradiated skin of pigs; 1 week after 50 Gy gamma irradiation, topical twice daily): similar
- severity of skin reaction vs. vehicle-treated irradiation group (irradiated skin of pigs; 50 Gy gamma irradiation, topical twice daily for 35 days): decreased severity in the skin reaction
- time at which beneficial effects on the dermatitis appeared (irradiated skin of pigs; after 50 Gy gamma irradiation, topical twice daily): 2 weeks
- healing of the biopsy wound (biopsy wound): attenuated the radiation-induced delayed healing
- TBARS levels vs. control group ([2]; 30 mg/kg i.p.): lower
- TBARS levels vs. control group ([2]; 300 mg/kg i.p.): significant decrease
- MPO activity vs. control group (Myeloperoxidase (MPO); 30 mg/kg i.p.): significantly lower
- MPO activity vs. control group (Myeloperoxidase (MPO); 300 mg/kg i.p.): significantly lower

From patent US12178800B2, “Sulforaphane-melatonin-like compound” (priority 2018, dated 2024)
